Source: the NIST ThermoML archive (doi:10.1016/j.jct.2014.05.019)

Experiment: refractive index (Na D-line) (dimensionless); xn = mol fraction of the nth substance listed
Details: 100 kPa, Liquid, Standard Abbe refractometry

NC(CO)C(=O)[O-].[Na+] (stereo not drawn) [sodium DL-serine] + O
refractive index
Details | 303.15 K | 308.15 K | 313.15 K | 318.15 K | 323.15 K | 328.15 K | 333.15 K | 338.15 K | 343.15 K
x1 = 0.009 | 1.34216 | 1.34144 | 1.34066 | 1.33982 | 1.33894 | 1.33802 | 1.33706 | 1.33608 | 1.33505
x1 = 0.018 | 1.35202 | 1.35122 | 1.35038 | 1.3495 | 1.34861 | 1.34767 | 1.34667 | 1.34565 | 1.34458
x1 = 0.028 | 1.36168 | 1.36085 | 1.36 | 1.35908 | 1.35806 | 1.35706 | 1.35612 | 1.35511 | 1.35407
x1 = 0.037 | 1.37103 | 1.37015 | 1.36925 | 1.3683 | 1.36729 | 1.36632 | 1.36532 | 1.36426 | 1.36322
x1 = 0.048 | 1.38012 | 1.37921 | 1.37827 | 1.37725 | 1.37623 | 1.37526 | 1.37424 | 1.37311 | 1.37204
x1 = 0.059 | 1.38919 | 1.38826 | 1.38724 | 1.3862 | 1.38512 | 1.38406 | 1.38298 | 1.38194 | 1.38083
